Measurements from patent US9669034B2, “4-aryl-N-phenyl-1,3,5-triazin-2-amines containing a sulfoximine group” (BAYER INTELLECTUAL PROPERTY GMBH, priority 2011, dated 2017).
Where two headings read alike, the source gives them in different places.

Tests used:
CDK9/CycT1 = CDK9/CycT1 (Homo sapiens (Human), UniProt P50750); assay: CDK9/CycT1 kinase assay (TR-FRET); type: biochemical; settings: Method 1
Text: 1. CDK9/CycT1 Kinase Assay:
CDK9/CycT1—inhibitory activity of compounds of the present invention was quantified employing the CDK9/CycT1 TR-FRET assay as described in the following paragraphs:
Recombinant full-length His-tagged human CDK9 and CycT1, expressed in insect cells and purified by Ni-NTA affinity chromatography, were purchased from Invitrogen (Cat. No PV4131). As substrate for the kinase reaction biotinylated peptide biotin-Ttds-[…]

CDK2/CycE = CDK2/CycE (Homo sapiens (Human), UniProt P24941); assay: CDK2/CycE kinase assay (TR-FRET); type: biochemical; settings: Method 2
Text: 2. CDK2/CycE Kinase Assay:
CDK2/CycE—inhibitory activity of compounds of the present invention was quantified employing the CDK2/CycE TR-FRET assay as described in the following paragraphs:
Recombinant fusion proteins of GST and human CDK2 and of GST and human CycE, expressed in insect cells (Sf9) and purified by Glutathion-Sepharose affinity chromatography, were purchased from ProQinase GmbH (Freiburg, Germany). As substrate for the kinase reaction biotinylated peptide biotin-Ttds-[…]

[1] = test system: HeLa-MaTu-ADR, multidrug-resistant human cervical carcinoma cells; assay: Proliferation assay (crystal violet), HeLa-MaTu-ADR; type: cell-based; settings: Homo sapiens, HeLa, Method 3, read-out: Inhibition of HeLa/MaTu/ADR cell proliferation, IC50
Procedure: (§1) Cultivated tumour cells (NCI-H460, human non-small cell lung carcinoma cells, ATCC HTB-177; DU145, hormone-independent human prostate carcinoma cells, ATCC HTB-81; HeLa-MaTu, human cervical carcinoma cells, EPO-GmbH, Berlin; HeLa-MaTu-ADR, multidrug-resistant human cervical carcinoma cells, EPO-GmbH, Berlin; HeLa human cervical tumour cells, ATCC CCL-2; Caco-2 human colorectal carcinoma, ATCC HTB-37; B16F10 mouse melanoma cells, ATCC CRL-6475) were plated at a density of 5000 cells/well (DU145, HeLa-MaTu-ADR), 3000 cells/well (NCI-H460, HeLa-MaTu, HeLa), 1500 cells/well (Caco-2), or 1000 cells/well (B16 F10) in a 96-well multititer plate in 200 μL of their respective growth medium supplemented 10% fetal calf serum. After 24 hours, the cells of one plate (zero-point plate) were stained with crystal violet (see below), while the medium of the other plates was replaced by fresh culture medium (200 μL), to which the test substances were added in various concentrations (0 M, as well as in the range of […]; the final concentration of the solvent dimethylsulfoxide was 0.5%). The cells were incubated for 4 days in the presence of test substances. Cell proliferation was determined by staining the cells with crystal violet: the cells were fixed by adding 20 μL/measuring point of an 11% glutaric aldehyde solution for 15 minutes at room temperature. After three washing cycles of the fixed cells with water, the plates were dried at room temperature. The cells were stained by adding 100 μL/measuring point of a 0.1% crystal violet solution (pH 3.0). After three washing cycles of the stained cells with water, the plates were dried at room temperature. The dye was dissolved by adding 100 μL/measuring point of a 10% acetic acid solution. The absorbance was determined by photometry at a wavelength of 595 nm. The change of cell number, in percent, was calculated by normalization of the measured values to the absorbance values of the zero-point plate (=0%) and the absorbance of the untreated (0 M) cells (=100%). The IC50 values were determined by means of a 4 parameter fit.

[2] = test system: NCI-H460, human non-small cell lung carcinoma cells; assay: Proliferation assay (crystal violet), NCI-H460; type: cell-based; settings: Homo sapiens, NCI-H460, NCI-H460 cells, Method 3; read-out: Inhibition of NCI-H460 cell proliferation, IC50
Procedure: as §1

[3] = test system: DU145, hormone-independent human prostate carcinoma cells; assay: Proliferation assay (crystal violet), DU145; type: cell-based; settings: Homo sapiens, DU-145, DU145 cells, Method 3; read-out: Inhibition of DU145 cell proliferation, IC50
Procedure: as §1

[4] = test system: Caco-2 human colorectal carcinoma; assay: Proliferation assay (crystal violet), Caco-2; type: cell-based; settings: Homo sapiens, Caco-2, Caco-2 cells, Method 3; read-out: Inhibition of Caco-2 cell proliferation, IC50
Procedure: as §1

[5] = test system: B16F10 mouse melanoma cells; assay: Proliferation assay (crystal violet), B16F10; type: cell-based; settings: Mus musculus, B16-F10, B16F10 cells, Method 3; read-out: Inhibition of B16F10 cell proliferation, IC50
Procedure: as §1

[6] = test system: HeLa human cervical tumour cells; assay: Proliferation assay (crystal violet), HeLa; type: cell-based; settings: Method 3, read-out: Inhibition of HeLa cell proliferation, IC50
Procedure: as §1

CDK9/CycT1, sequence (P50750 whole entry): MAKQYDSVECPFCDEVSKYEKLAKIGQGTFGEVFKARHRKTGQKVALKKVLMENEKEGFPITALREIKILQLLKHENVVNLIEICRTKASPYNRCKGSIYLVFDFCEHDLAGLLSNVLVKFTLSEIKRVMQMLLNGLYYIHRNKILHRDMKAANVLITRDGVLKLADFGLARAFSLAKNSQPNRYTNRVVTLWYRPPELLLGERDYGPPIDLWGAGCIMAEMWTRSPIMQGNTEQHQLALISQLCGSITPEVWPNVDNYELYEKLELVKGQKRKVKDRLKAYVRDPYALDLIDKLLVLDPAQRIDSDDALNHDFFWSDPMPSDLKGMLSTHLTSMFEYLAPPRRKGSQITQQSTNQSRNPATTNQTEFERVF
CDK9/CycT1, sequence (O60563 whole entry partner): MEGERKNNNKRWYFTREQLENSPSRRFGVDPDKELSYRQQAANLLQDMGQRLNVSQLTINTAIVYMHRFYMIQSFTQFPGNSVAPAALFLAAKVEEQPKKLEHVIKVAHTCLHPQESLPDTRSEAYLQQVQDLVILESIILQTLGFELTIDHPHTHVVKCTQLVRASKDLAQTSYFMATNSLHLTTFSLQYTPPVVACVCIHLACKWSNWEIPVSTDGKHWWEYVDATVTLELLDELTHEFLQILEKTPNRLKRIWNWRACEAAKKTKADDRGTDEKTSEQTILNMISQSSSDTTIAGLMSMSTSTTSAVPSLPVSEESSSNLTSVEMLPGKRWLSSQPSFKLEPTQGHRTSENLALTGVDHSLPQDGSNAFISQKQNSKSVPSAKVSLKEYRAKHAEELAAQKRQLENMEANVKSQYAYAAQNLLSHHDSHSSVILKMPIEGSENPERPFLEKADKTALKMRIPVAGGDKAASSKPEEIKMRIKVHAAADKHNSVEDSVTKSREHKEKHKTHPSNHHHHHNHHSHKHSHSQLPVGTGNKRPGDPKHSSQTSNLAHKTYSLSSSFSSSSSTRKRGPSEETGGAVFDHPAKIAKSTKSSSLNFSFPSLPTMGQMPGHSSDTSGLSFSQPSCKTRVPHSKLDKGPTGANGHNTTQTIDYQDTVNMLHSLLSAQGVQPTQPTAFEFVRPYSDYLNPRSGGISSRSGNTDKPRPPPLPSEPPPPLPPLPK

SMILES | IC50 (CDK9/CycT1) [nM] | IC50 (CDK2/CycE) [nM] | IC50 [1] [nM] | IC50 [2] [nM] | IC50 [3] [nM] | IC50 [4] [nM] | IC50 [5] [nM] | IC50 ([6]; Homo sapiens, HeLa) [nM] | IC50 [6] [nM]
CCOC(=O)N=S(C)(=O)Cc1cccc(Nc2ncnc(-c3cc(F)c(F)cc3OC)n2)c1 (racemic) [Example 9, (rac)-Ethyl [(3-{[4-(4,5-difluoro-2-methoxyphenyl)-1,3,5-triazin-2-yl]amino}benzyl)(methyl)oxido-λ^6-sulfanylidene]carbamate] | 8 | 690 | 960 | 980 | 900 | 800 | 1000 |  | 
CNC(=O)N=S(C)(=O)Cc1cccc(Nc2ncnc(-c3ccc(F)cc3OC)n2)c1 (racemic) [Example 15, (rac)-1-[(3-{[4-(4-Fluoro-2-methoxyphenyl)-1,3,5-triazin-2-yl]amino}benzyl)(methyl)oxido-λ^6-sulfanylidene]-3-methylurea] | 7 | 930 | 940 | 1000 | 370 | 1000 | 620 | 390 | 
COc1cc(F)ccc1-c1ncnc(Nc2cccc(CS(C)(=O)=NC(C)=O)c2)n1 (racemic) [Example 24, (rac)-N-[(3-{[4-(4-fluoro-2-methoxyphenyl)-1,3,5-triazin-2-yl]amino}benzyl)(methyl)oxido-λ^6-sulfanylidene]acetamide] | 11 | 1800 | 520 | 760 | 680 | 710 | 940 | 490 | 
CCOC(=O)N=S(C)(=O)Cc1cccc(Nc2ncnc(-c3cccc4c3OCCC4)n2)c1 (racemic) [Example 29, (rac)-Ethyl [(3-{[4-(3,4-dihydro-2H-chromen-8-yl)-1,3,5-triazin-2-yl]amino}benzyl)(methyl)oxido-λ^6-sulfanylidene]carbamate] | 13 | 1200 | 760 | 720 | 540 | 760 | 960 | 510 | 
CCOC(=O)N=S(C)(=O)Cc1cc(F)cc(Nc2ncnc(-c3ccc(F)cc3OC)n2)c1 (racemic) [Example 51, (rac)-Ethyl [(3-fluoro-5-{[4-(4-fluoro-2-methoxyphenyl)-1,3,5-triazin-2-yl]amino}benzyl)(methyl)oxido-λ^6-sulfanylidene]carbamate] |  | 430 | 240 | 230 | 240 | 290 | 340 | 300 | 
COc1cc(F)ccc1-c1ncnc(Nc2cc(F)cc(CS(C)(=N)=O)c2)n1 (racemic) [Example 52, (rac)-4-(4-Fluoro-2-methoxyphenyl)-N-{3-fluoro-5-[(S-methylsulfonimidoyl)methyl]phenyl}-1,3,5-triazin-2-amine] |  | 1000 | 140 | 650 | 340 | 690 | 550 | 410 | 
CS(=N)(=O)Cc1cccc(Nc2ncnc(-c3ccc(F)cc3OCC3CCCCC3)n2)c1 (racemic) [Example 55, (rac)-4-[2-(Cyclohexylmethoxy)-4-fluorophenyl]-N-{3-[(S-methylsulfonimidoyl)methyl]phenyl}-1,3,5-triazin-2-amine] | 10 | 2200 | 850 | 980 | 990 | 890 |  | 1000 | 
CS(=N)(=O)Cc1cccc(Nc2ncnc(-c3ccc(F)cc3OCc3ccc(C(F)(F)F)cc3)n2)c1 (racemic) [Example 86, (rac)-4-(4-Fluoro-2-{[4-(trifluoromethyl)benzyl]oxy}phenyl)-N-{3-[(S-methylsulfonimidoyl)methyl]phenyl}-1,3,5-triazin-2-amine] | 8 | 1400 |  |  |  |  |  | 1100 | 
CS(=N)(=O)Cc1cccc(Nc2ncnc(-c3ccc(F)cc3OCc3ccon3)n2)c1 (racemic) [Example 93, (rac)-4-[4-Fluoro-2-(1,2-oxazol-3-ylmethoxy)phenyl]-N-{3-[(S-methylsulfonimidoyl)methyl]phenyl}-1,3,5-triazin-2-amine] | 7 | 2000 |  |  |  |  |  | 680 | 
CS(=N)(=O)Cc1cccc(Nc2ncnc(-c3ccc(F)cc3OCC(F)F)n2)c1 (racemic) [Example 95, (rac)-4-[2-(2,2-Difluoroethoxy)-4-fluorophenyl]-N-{3-[(S-methylsulfonimidoyl)methyl]phenyl}-1,3,5-triazin-2-amine] | 21 | 1800 |  |  |  |  |  | 1100 | 
Cc1cc(COc2cc(F)ccc2-c2ncnc(Nc3cccc(CS(C)(=N)=O)c3)n2)ccc1F (racemic) [Example 96, (rac)-4-{4-Fluoro-2-[(4-fluoro-3-methylbenzyl)oxy]phenyl}-N-{3-[(S-methylsulfonimidoyl)methyl]phenyl}-1,3,5-triazin-2-amine] | 3 | 350 |  |  |  |  |  | 1000 | 
CS(=N)(=O)Cc1cccc(Nc2ncnc(-c3ccc(F)cc3OCc3ccc(F)c(Cl)c3)n2)c1 (racemic) [Example 97, (rac)-4-{2-[(3-Chloro-4-fluorobenzyl)oxy]-4-fluorophenyl}-N-{3-[(S-methylsulfonimidoyl)methyl]phenyl}-1,3,5-triazin-2-amine] | 3 | 200 |  |  |  |  |  | 940 | 
CS(=N)(=O)Cc1cccc(Nc2ncnc(-c3ccc(F)cc3OCCCC(F)(F)F)n2)c1 (racemic) [Example 100, (rac)-4-[4-Fluoro-2-(4,4,4-trifluorobutoxy)phenyl]-N-{3-[(S-methylsulfonimidoyl)methyl]phenyl}-1,3,5-triazin-2-amine] | 6 | 1300 |  |  |  |  |  | 920 | 
CS(=N)(=O)Cc1cccc(Nc2ncnc(-c3ccc(F)cc3OCc3cc(F)c(F)cc3F)n2)c1 (racemic) [Example 103, (rac)-4-{4-Fluoro-2-[(2,4,5-trifluorobenzyl)oxy]phenyl}-N-{3-[(S-methylsulfonimidoyl)methyl]phenyl}-1,3,5-triazin-2-amine] | 7 | 1200 |  |  |  |  |  | 1100 | 
CCS(=N)(=O)Cc1cccc(Nc2ncnc(-c3ccc(F)cc3OC)n2)c1 (racemic) [Example 108, (rac)-N-{3-[(S-ethylsulfonimidoyl)methyl]phenyl}-4-(4-fluoro-2-methoxyphenyl)-1,3,5-triazin-2-amine] | 8 | 1000 |  |  |  |  |  | 1000 | 
COc1cc(F)ccc1-c1ncnc(Nc2ccc(Cl)c(CS(C)(=N)=O)c2)n1 (single isomer, unassigned) [Example 59.a, N-{4-Chloro-3-[(S-methylsulfonimidoyl)methyl]phenyl}-4-(4-fluoro-2-methoxyphenyl)-1,3,5-triazin-2-amine] | 25 | 2900 |  |  |  |  |  | 1100 | 
COc1cc(F)ccc1-c1ncnc(Nc2ccc(Cl)c(CS(C)(=N)=O)c2)n1 (single isomer, unassigned) [Example 59.b, N-{4-Chloro-3-[(S-methylsulfonimidoyl)methyl]phenyl}-4-(4-fluoro-2-methoxyphenyl)-1,3,5-triazin-2-amine] | 33 | 1800 |  |  |  |  |  |  | 1100
